This is an account of results in US10751285B1, “Synthesis of C resorcinarene based novel amphiphilic supramolecular macrocycle as nano-scale drug loading system” (priority 2019, dated 2020).

Structures are written as SMILES.

A short description of this series: Critical micelle concentration (CMC) by UV-visible spectrophotometer. Type of series: physicochemical. The following applies: in methanol; absorbance at 283 nm; 0.001-0.09 mM range. Here is the method:
CMC of the synthesized resorcinarene based amphiphilic supramolecular macrocycle was investigated in methanol using UV-visible spectrophotometer. Amphiphile methanolic solutions in 0.001-0.09 mM range were read on UV-visible spectrophotometer, giving characteristic absorbance at 283 nm.

`CCCCCCCCCCCCCCCCOc1ccc(C2c3cc(c(O)cc3O)C(c3ccc(OCCCCCCCCCCCCCCCC)cc3)c3cc(c(O)cc3O)C(c3ccc(OCCCCCCCCCCCCCCCC)cc3)c3cc(c(O)cc3O)C(c3ccc(OCCCCCCCCCCCCCCCC)cc3)c3cc2c(O)cc3O)cc1` (stereo not shown) [ASRM] gave a CMC of 0.04 mM.
